Columns and labels:
[1] = Hydrolytic stability of 19F fluorosilanes (hydrolysis to the hydroxy compound) at physiological pH; assay type: physicochemical; conditions: for remaining at 6 h / half-life: buffer; for remaining at 6 h: fraction of intact 19F compound after 6 hours under hydrolytic conditions at pH 7; for half-life: hydrolytic halflife, physiological pH (7.0), 19F compound, calculated from the kinetics; for rel. stability: ratio of hydrolytic halflife to radioactive halflife of 18-F (1.83 hours), pH 7.0
Procedure: The time dependent degree of hydrolysis of compounds of formula I in which X is a fluorine atom of isotope 19 to compounds of formula I in which X is a hydroxy group was determined at physiological pH (7.0). From the kinetics the hydrolytic halflife (t1/2) measured in hours [h] of compounds of formula I in which X is a fluorine atom of isotope 19 were calculated (Table 1, column 2).
The ratio of the hydrolytic halflifes of compounds of formula I in which X is a fluorine atom of isotope 19 and the radioactive halflife of the 18-F isotope (1.83 hours) is defined as relative stability (Table 1, column 3).
After 6 hours 90% of the 18-F isotope have been decayed.
Compounds of formula I in which X is a fluorine atom of isotope 18 are considered as useful for PET applications if the relative stability of their analogs bearing a fluorine atom of isotope 19 exceed a factor of four and if at least 50% of these compounds remain intact after 6 hours under hydrolytic conditions at pH 7.

[2] = rats allowed to inhale the gas; shows fast release of fluoride in vivo; cited from earlier work

Question: Which remaining at 6 h [1] does the source give for CC(C)[Si](F)(c1ccc(COC2CCCCO2)cc1)C(C)C (racemic) [3a - F, (RS)-Fluoro-diisopropyl-[4-(tetrahydro-pyran-2-yloxymethyl)-phenyl]-silane] here?
Answer: Its remaining at 6 h is 90%.

Question: What about the half-life [1] of the same molecule?
Answer: The half-life was 2960 min.

Question: And the rel. stability [1]?
Answer: The rel. stability was 27.0.

Question: Which remaining at 6 h [1] does the source give for CC(C)[Si](F)(c1ccc(CCOC2CCCCO2)cc1)C(C)C (racemic) [3b - F, (RS)-Fluoro-diisopropyl-{4-[2-(tetrahydro-pyran-2-yloxy)-ethyl]-phenyl}-silane] here?
Answer: The remaining at 6 h was 94%.

Question: And the half-life [1]?
Answer: Its half-life is 4580 min.

Question: What about the rel. stability [1] of the same molecule?
Answer: The rel. stability was 41.8.

Question: What does the source list for CC(C)[Si](F)(c1ccc(CCCOC2CCCCO2)cc1)C(C)C (racemic) [3c - F, (RS)-Fluoro-diisopropyl-{4-[3-(tetrahydro-pyran-2-yloxy)-propyl]-phenyl}-silane]?
Answer: remaining at 6 h [1]: 95%; half-life [1]: 5990 min; rel. stability [1]: 54.6

Question: With CC(C)[Si](F)(c1cccc(CCCOC2CCCCO2)c1)C(C)C (racemic) [3d - F, (RS)-Fluoro-diisopropyl-{3-[3-(tetrahydro-pyran-2-yloxy)-propyl]-phenyl}-silane] as the molecule, how does the remaining at 6 h [1] read?
Answer: Its remaining at 6 h is greater than 95%.

Question: What about the half-life [1] of the same molecule?
Answer: Its half-life is greater than 6000 min.

Question: And the rel. stability [1]?
Answer: Its rel. stability is greater than 54.6.

Question: With CC(C)[Si](F)(c1cccc(CCOC2CCCCO2)c1)C(C)C (racemic) [3e - F, (RS)-Fluoro-diisopropyl-{3-[2-(tetrahydro-pyran-2-yloxy)-ethyl]-phenyl}-silane] as the molecule, how does the remaining at 6 h [1] read?
Answer: Its remaining at 6 h is greater than 95%.

Question: And the half-life [1]?
Answer: Its half-life is greater than 6000 min.

Question: What about the rel. stability [1] of the same molecule?
Answer: The rel. stability was greater than 54.6.

Question: What does the source list for F[Si](c1ccccc1)(c1ccccc1)c1ccc(CCOC2CCCCO2)cc1 (racemic) [3f - F, (RS)-Fluoro-diphenyl-{4-[2-(tetrahydro-pyran-2-yloxy)-ethyl]-phenyl}-silane]?
Answer: remaining at 6 h [1]: < 1%; half-life [1]: 4.2 min; rel. stability [1]: 0.04

Question: With CC(C)C[Si](F)(CC(C)C)c1ccc(COC2CCCCO2)cc1 (racemic) [Compound 3g-F, (RS)-Fluoro-diisobutyl-[4-(tetrahydro-pyran-2-yloxymethyl)-phenyl]-silane] as the molecule, how does the remaining at 6 h [1] read?
Answer: The remaining at 6 h was 59%.

Question: What about the half-life [1] of the same molecule?
Answer: Its half-life is 486 min.

Question: What about the rel. stability [1] of the same molecule?
Answer: The rel. stability was 4.5.

Question: For CC(C)C[Si](F)(CC(C)C)c1ccc(CCOC2CCCCO2)cc1 (racemic) [Compound 3h-F, (RS)-Fluoro-diisobutyl-{4-[2-(tetrahydro-pyran-2-yloxy)-ethyl]-phenyl}-silane], which remaining at 6 h [1] is on record?
Answer: The remaining at 6 h was 79%.

Question: And the half-life [1]?
Answer: The half-life was 1150 min.

Question: And the rel. stability [1]?
Answer: The rel. stability was 10.7.

Question: For CC(C)[Si](F)(c1ccc(CO)cc1)C(C)C [4a -F, [4-(Fluoro-diisopropyl-silanyl)-phenyl]-methanol], which remaining at 6 h [1] is on record?
Answer: The remaining at 6 h was 85%.

Question: What about the half-life [1] of the same molecule?
Answer: Its half-life is 1690 min.

Question: And the rel. stability [1]?
Answer: Its rel. stability is 15.4.

Question: What does the source list for CC(C)[Si](F)(c1ccc(CCO)cc1)C(C)C [4b - F, 2-[4-(Fluoro-diisopropyl-silanyl)-phenyl]-ethanol]?
Answer: remaining at 6 h [1]: 84%; half-life [1]: 4010 min; rel. stability [1]: 36.5

Question: For CC(C)[Si](F)(c1ccc(CCCO)cc1)C(C)C [4c - F, 3-[4-(Fluoro-diisopropyl-silanyl)-phenyl]-propan-1-ol], which remaining at 6 h [1] is on record?
Answer: The remaining at 6 h was 90%.

Question: What about the half-life [1] of the same molecule?
Answer: Its half-life is greater than 6000 min.

Question: And the rel. stability [1]?
Answer: Its rel. stability is greater than 54.6.

Question: For CC(C)[Si](F)(c1cccc(CCCO)c1)C(C)C [4d - F, 3-[3-(Fluoro-diisopropyl-silanyl)-phenyl]-propan-1-ol], which remaining at 6 h [1] is on record?
Answer: Its remaining at 6 h is 89%.

Question: What about the half-life [1] of the same molecule?
Answer: The half-life was 2600 min.

Question: And the rel. stability [1]?
Answer: The rel. stability was 23.7.

Question: For CC(C)[Si](F)(c1cccc(CCO)c1)C(C)C [4e - F, 2-[3-(Fluoro-diisopropyl-silanyl)-phenyl]-ethanol], which remaining at 6 h [1] is on record?
Answer: The remaining at 6 h was 78%.

Question: And the half-life [1]?
Answer: The half-life was 1400 min.

Question: What about the rel. stability [1] of the same molecule?
Answer: Its rel. stability is 12.7.

Question: Which remaining at 6 h [1] does the source give for CC(C)[Si](F)(c1ccc(C(=O)O)cc1)C(C)C [5a - F, 4-(Fluoro-diisopropyl-silanyl)-benzoic acid] here?
Answer: Its remaining at 6 h is 66%.

Question: And the half-life [1]?
Answer: Its half-life is 654 min.

Question: And the rel. stability [1]?
Answer: The rel. stability was 6.1.

Question: For CC(C)[Si](F)(c1ccc(CC(=O)O)cc1)C(C)C [5b - F, [4-(Fluoro-diisopropyl-silanyl)-phenyl]-acetic acid], which remaining at 6 h [1] is on record?
Answer: The remaining at 6 h was 82%.

Question: What about the half-life [1] of the same molecule?
Answer: The half-life was 1480 min.

Question: What about the rel. stability [1] of the same molecule?
Answer: The rel. stability was 13.5.

Question: Which results are given for CC(C)[Si](F)(c1ccc(CCC(=O)O)cc1)C(C)C [5c - F, 3-[4-(Fluoro-diisopropyl-silanyl)-phenyl]-propionic acid]?
Answer: remaining at 6 h [1]: 92%; half-life [1]: 3540 min; rel. stability [1]: 32.2

Question: With CC(C)[Si](F)(c1cccc(CCC(=O)O)c1)C(C)C [5d - F, 3-[3-(Fluoro-diisopropyl-silanyl)-phenyl]-propionic acid] as the molecule, how does the remaining at 6 h [1] read?
Answer: Its remaining at 6 h is 81%.

Question: And the half-life [1]?
Answer: Its half-life is 1330 min.

Question: And the rel. stability [1]?
Answer: The rel. stability was 12.1.

Question: What does the source list for CC(C)[Si](F)(c1cccc(CC(=O)O)c1)C(C)C [5e - F, [3-(Fluoro-diisopropyl-silanyl)-phenyl]-acetic acid]?
Answer: remaining at 6 h [1]: 78%; half-life [1]: 1200 min; rel. stability [1]: 10.9

Question: Which results are given for CC(C)C[Si](F)(CC(C)C)c1ccc(C(=O)O)cc1 [5g - F, 4-(Fluoro-diisobutyl-silanyl)-benzoic acid]?
Answer: remaining at 6 h [1]: 31%; half-life [1]: 210 min; rel. stability [1]: 1.9

Question: Which remaining at 6 h [1] does the source give for CC(C)C[Si](F)(CC(C)C)c1ccc(CC(=O)O)cc1 [5h - F, [4-(Fluoro-diisobutyl-silanyl)-phenyl]-acetic acid] here?
Answer: Its remaining at 6 h is 61%.

Question: What about the half-life [1] of the same molecule?
Answer: Its half-life is 522 min.

Question: And the rel. stability [1]?
Answer: The rel. stability was 4.8.

Question: With CC(C)[Si](F)(CCCNC(=O)c1ccccc1)C(C)C [22 - F, N-[3-(Fluoro-diisopropyl-silanyl)-propyl]-benzamide] as the molecule, how does the remaining at 6 h [1] read?
Answer: The remaining at 6 h was 83%.

Question: And the half-life [1]?
Answer: Its half-life is 2020 min.

Question: And the rel. stability [1]?
Answer: Its rel. stability is 18.4.

Question: Which remaining at 6 h [1] does the source give for CC(C)C[Si](F)(CCCCC(=O)Nc1ccccc1)CC(C)C [30a - 1F, 5-(Fluoro-diisobutyl-silanyl)-pentanoic acid phenylamide] here?
Answer: Its remaining at 6 h is 71%.

Question: And the half-life [1]?
Answer: Its half-life is 828 min.

Question: What about the rel. stability [1] of the same molecule?
Answer: The rel. stability was 7.5.

Question: For C[Si](C)(C)[18F] [^18F-Fluorotrimethylsilane], which “uptake of ^18F in the bone” value [2] is on record?
Answer: The value was “extensive uptake of ^18F in the bone”.

Reference: patent EP1908472A1, “Silicon derivatives for PET imaging” (Bayer Schering Pharma Aktiengesellschaft, priority 2006, dated 2008)
